Experimental data from ChEMBL document CHEMBL1201862, “PubChem BioAssay data set” (2004).
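Results reflect a 48-hour exposure of cells in 96-well plates to compound at five concentrations. Abbreviation: GI50, concentration required for 50% inhibition of growth.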 Activity calls are given as the source filed them. Cut-off read from the data, not from the text of the source: active = GI50 up to about 1.1 µM and inactive = higher.

Assays:
Experiment in all cases: DTP human tumour cell line panel, 48 h
[1] = system: BT-549
[2] = system: CAKI-1
[3] = system: COLO 205
[4] = system: HOP-62
[5] = system: IGROV-1
[6] = system: K562
[7] = system: MCF7
[8] = system: MDA-MB-231
[9] = system: MDA-N
[10] = system: OVCAR-8
[11] = system: RXF 393
[12] = system: SN12C
[13] = system: SNB-19
[14] = system: SR
[15] = system: SW-620
[16] = system: TK-10
[17] = system: UACC-62
[18] = system: NCI-H522
[19] = system: RPMI-8226
[20] = system: SNB-75

Compound	GI50 [1]	GI50 [2]	GI50 [3]	GI50 [4]	GI50 [5]	GI50 [6]	GI50 [7]	GI50 [8]	GI50 [9]	GI50 [10]	GI50 [11]	GI50 [12]	GI50 [13]	GI50 [14]	GI50 [15]	GI50 [16]	GI50 [17]	GI50 [18]	GI50 [19]	GI50 [20]
CC(=O)OC1OC(c2ccoc2)C[C@@]12C1CCC3O[C@]3(C)[C@]1(C)[C@H](OC(C)=O)[C@H](OC(C)=O)[C@H]2C (stereo not given in full)	> 37.5 µM (inactive)	> 37.5 µM (inactive)	> 37.5 µM (inactive)	> 37.5 µM (inactive)	> 37.5 µM (inactive)	> 37.5 µM (inactive)	> 37.5 µM (inactive)	> 37.5 µM (inactive)	> 37.5 µM (inactive)	> 37.5 µM (inactive)	> 37.5 µM (inactive)	> 37.5 µM (inactive)	> 37.5 µM (inactive)	18.1 µM (inactive)	> 37.5 µM (inactive)	> 37.5 µM (inactive)	> 37.5 µM (inactive)	–	–	–
CC(=O)O[C@H]1C(=O)[C@@]2(C)[C@H]([C@H](OC(=O)c3ccccc3)[C@]3(O)C[C@H](OC(=O)[C@H](O)[C@@H](NC(=O)c4ccccc4)C4CCCCC4)C(C)=C1C3(C)C)[C@]1(OC(C)=O)CO[C@@H]1C[C@@H]2O	0.0143 µM (active)	0.409 µM (active)	< 0.01 µM (active)	< 0.01 µM (active)	< 0.01 µM (active)	< 0.01 µM (active)	< 0.01 µM (active)	< 0.01 µM (active)	< 0.01 µM (active)	< 0.01 µM (active)	< 0.01 µM (active)	–	0.013 µM (active)	< 0.01 µM (active)	< 0.01 µM (active)	0.0352 µM (active)	< 0.01 µM (active)	< 0.01 µM (active)	< 0.01 µM (active)	–
O=C1c2cscc2C(=O)C1(O)O	31.5 µM (inactive)	30.8 µM (inactive)	19.2 µM (inactive)	> 100 µM (inactive)	> 100 µM (inactive)	33 µM (inactive)	> 100 µM (inactive)	74.1 µM (inactive)	40.4 µM (inactive)	32.9 µM (inactive)	–	20 µM (inactive)	> 100 µM (inactive)	19.1 µM (inactive)	20.4 µM (inactive)	> 100 µM (inactive)	> 100 µM (inactive)	18.7 µM (inactive)	45 µM (inactive)	–
Cc1nc2c(N3CCCC3)nc(N3CCNCC3)nc2nc1NCc1ccccc1	2.4 µM (inactive)	3.01 µM (inactive)	1.24 µM (inactive)	2.94 µM (inactive)	3.95 µM (inactive)	2.81 µM (inactive)	2.33 µM (inactive)	2.95 µM (inactive)	1.61 µM (inactive)	3.37 µM (inactive)	–	7.29 µM (inactive)	5.66 µM (inactive)	2.84 µM (inactive)	2.36 µM (inactive)	4.88 µM (inactive)	2.79 µM (inactive)	1.65 µM (inactive)	2.11 µM (inactive)	0.578 µM (active)
COc1ccc2c(c1)CC[C@@H]1C2CC[C@]2(C)C(=O)N(CCN(C)C)C(=O)CC12 (stereo not given in full)	> 100 µM (inactive)	> 100 µM (inactive)	> 100 µM (inactive)	> 100 µM (inactive)	> 100 µM (inactive)	> 100 µM (inactive)	> 100 µM (inactive)	> 100 µM (inactive)	> 100 µM (inactive)	> 100 µM (inactive)	> 100 µM (inactive)	> 100 µM (inactive)	> 100 µM (inactive)	> 100 µM (inactive)	> 100 µM (inactive)	> 100 µM (inactive)	> 100 µM (inactive)	> 100 µM (inactive)	–	> 100 µM (inactive)
CC(=O)N1CCOC12N=NC(C)(C)O2 (stereo not given)	> 100 µM (inactive)	> 100 µM (inactive)	> 100 µM (inactive)	> 100 µM (inactive)	> 100 µM (inactive)	> 100 µM (inactive)	> 100 µM (inactive)	> 100 µM (inactive)	> 100 µM (inactive)	> 100 µM (inactive)	–	> 100 µM (inactive)	> 100 µM (inactive)	> 100 µM (inactive)	> 100 µM (inactive)	> 100 µM (inactive)	> 100 µM (inactive)	> 100 µM (inactive)	> 100 µM (inactive)	> 100 µM (inactive)
COc1ccc(/N=C2\C(=O)C3=C(OC(C)(C)CC3)c3ccccc32)cc1	1.1 µM (active)	0.991 µM (active)	2.93 µM (inactive)	0.91 µM (active)	1.36 µM (inactive)	0.612 µM (active)	0.9 µM (active)	1.41 µM (inactive)	0.492 µM (active)	0.43 µM (active)	1.09 µM (active)	0.889 µM (active)	0.916 µM (active)	0.935 µM (active)	0.873 µM (active)	2.33 µM (inactive)	0.94 µM (active)	1.04 µM (active)	–	1.11 µM (active)
NC(=O)C(c1ccccc1)N1OC2C(=O)N(Cc3ccccc3)C(=O)C2C1c1cccc(Oc2ccc(Cl)cc2)c1 (stereo not given)	34 µM (inactive)	14.9 µM (inactive)	17.5 µM (inactive)	42.1 µM (inactive)	36.5 µM (inactive)	26 µM (inactive)	28 µM (inactive)	37.1 µM (inactive)	20.7 µM (inactive)	39.7 µM (inactive)	17.5 µM (inactive)	16.4 µM (inactive)	37.1 µM (inactive)	22.7 µM (inactive)	48.8 µM (inactive)	30.9 µM (inactive)	15.8 µM (inactive)	28.7 µM (inactive)	–	31.7 µM (inactive)
Cn1c(=O)c2c(nc(-n3nc(-c4ccc(Cl)cc4)cc3N)n2C)n(C)c1=O	44.5 µM (inactive)	> 100 µM (inactive)	> 100 µM (inactive)	10.5 µM (inactive)	> 100 µM (inactive)	67.6 µM (inactive)	68.4 µM (inactive)	> 100 µM (inactive)	> 100 µM (inactive)	18.1 µM (inactive)	> 100 µM (inactive)	> 100 µM (inactive)	> 100 µM (inactive)	13 µM (inactive)	–	> 100 µM (inactive)	65.6 µM (inactive)	–	69.7 µM (inactive)	–
CC(C)(C)CN1[C@@H]2CCCC[C@H]2N(CC(C)(C)C)P1(=O)Cc1ccccc1	17.1 µM (inactive)	12.7 µM (inactive)	10.4 µM (inactive)	16.4 µM (inactive)	11 µM (inactive)	13.6 µM (inactive)	12.8 µM (inactive)	12.2 µM (inactive)	14.9 µM (inactive)	14.4 µM (inactive)	10.8 µM (inactive)	16.3 µM (inactive)	14.6 µM (inactive)	11.8 µM (inactive)	14 µM (inactive)	12.5 µM (inactive)	10.7 µM (inactive)	7.48 µM (inactive)	–	11.4 µM (inactive)
COc1cc2c(c(OC)c1OC)-c1ccc(=O)c(O)cc1[C@@H](NC(C)=O)CC2 [COLCHICEINE]	14.6 µM (inactive)	12.6 µM (inactive)	19.4 µM (inactive)	24.9 µM (inactive)	26.3 µM (inactive)	15.6 µM (inactive)	17 µM (inactive)	15.4 µM (inactive)	16.9 µM (inactive)	13.3 µM (inactive)	–	16.8 µM (inactive)	25.4 µM (inactive)	2.99 µM (inactive)	26.5 µM (inactive)	37.9 µM (inactive)	13.2 µM (inactive)	12.2 µM (inactive)	11.1 µM (inactive)	40.6 µM (inactive)
COc1ccc(/C(=N/N=c2[nH]c3ccccc3[nH]2)C(=O)O)cc1	> 100 µM (inactive)	> 100 µM (inactive)	> 100 µM (inactive)	> 100 µM (inactive)	> 100 µM (inactive)	> 100 µM (inactive)	> 100 µM (inactive)	> 100 µM (inactive)	> 100 µM (inactive)	> 100 µM (inactive)	–	> 100 µM (inactive)	> 100 µM (inactive)	> 100 µM (inactive)	> 100 µM (inactive)	> 100 µM (inactive)	> 100 µM (inactive)	> 100 µM (inactive)	> 100 µM (inactive)	> 100 µM (inactive)
O=C(O)C1C(C(=O)O)C2C(=O)C=CC1N2Cc1ccccc1 (stereo not given)	4.57 µM (inactive)	3.94 µM (inactive)	6.98 µM (inactive)	2.59 µM (inactive)	6.5 µM (inactive)	6.67 µM (inactive)	4.63 µM (inactive)	3.16 µM (inactive)	2.56 µM (inactive)	4.16 µM (inactive)	2.72 µM (inactive)	1.84 µM (inactive)	5.55 µM (inactive)	–	2.65 µM (inactive)	2.84 µM (inactive)	7.96 µM (inactive)	1.87 µM (inactive)	2.96 µM (inactive)	2.65 µM (inactive)
CCN(CC)CCNc1ccc2ncn3c4c(OC)ccc(OC)c4c(=O)c1c23	> 10 µM (inactive)	86.5 µM (inactive)	0.841 µM (active)	> 100 µM (inactive)	> 10 µM (inactive)	10.4 µM (inactive)	3.57 µM (inactive)	12 µM (inactive)	10.8 µM (inactive)	10.8 µM (inactive)	1.71 µM (inactive)	> 10 µM (inactive)	20 µM (inactive)	3.72 µM (inactive)	0.853 µM (active)	> 100 µM (inactive)	22.6 µM (inactive)	15.7 µM (inactive)	–	10.6 µM (inactive)
